# In patent publication US4130559A, “Method for the preparation of 6-aminopenicillinic acid derivatives” (priority 1977, dated 1978):
# Read-outs that look alike come from different tables or passages of the source.
# Tests used:
# [1] = in vivo; conditions: mouse, iv
# [2] = Acid resistance (half-life period); assay type: physicochemical; conditions: acid ph 1.3, Temperature 37° C, pH 1.3, read-out: τ1/2 half-life period (acid resistance)
# Method: (§1) All compounds of this group were prepared in the form of sodium salts. Bactericidal activity, degree of hydrolysis with staphylococc penicillinase and acid resistance of the penicillins were determined.
# [3] = test system: Sh.dysenteriae Flexneri; assay: Minimal bacteriostatic concentration; assay type: cell-based; conditions: Shigella dysenteriae, read-out: Minimal Bacteriostatic Concentration
# Method: as §1
# [4] = test system: Strept. pyrogenes; assay: Minimal bacteriostatic concentration; assay type: cell-based; conditions: sodium salts
# Method: as §1
# [5] = test system: B.Subtitis ATCC6633; assay: Minimal bacteriostatic concentration; assay type: cell-based; conditions: sodium salts
# Method: as §1
# [6] = test system: Ps.aeruginosa; assay: Minimal bacteriostatic concentration; assay type: cell-based; conditions: Pseudomonas aeruginosa, sodium salts
# Method: as §1
# [7] = test system: E.coli O-55; assay: Minimal bacteriostatic concentration; assay type: cell-based; conditions: Escherichia coli, O55, read-out: Minimal Bacteriostatic Concentration
# Method: as §1
# [8] = test system: E.typhi; assay: Minimal bacteriostatic concentration; assay type: cell-based; conditions: read-out: Minimal Bacteriostatic Concentration
# Method: as §1
# [9] = test system: Prot.vulgaris; assay: Minimal bacteriostatic concentration; assay type: cell-based; conditions: Proteus vulgaris, sodium salts
# Method: as §1
# [10] = test system: Staph. albus; assay: Minimal bacteriostatic concentration; assay type: cell-based; conditions: sodium salts
# Method: as §1
# [11] = test system: Vibrion Metschnicoff; assay: Minimal bacteriostatic concentration; assay type: cell-based; conditions: Vibrion Metschnicoff; sodium salts; read-out: Minimal Bacteriostatic Concentration
# Method: as §1
# [12] = test system: Myco smegmatis; assay: Minimal bacteriostatic concentration; assay type: cell-based; conditions: sodium salts
# Method: as §1
# [13] = test system: Staph. aureus 209p; assay: Minimal bacteriostatic concentration; assay type: cell-based; conditions: Staphylococcus aureus, sodium salts
# Method: as §1
# [14] = target: staphylococc penicillinase (Staphylococcus aureus, UniProt P00807); assay: Hydrolysis/inactivation by staphylococc penicillinase; assay type: biochemical; conditions: Table 5
# Chain of staphylococc penicillinase (P00807 25-281): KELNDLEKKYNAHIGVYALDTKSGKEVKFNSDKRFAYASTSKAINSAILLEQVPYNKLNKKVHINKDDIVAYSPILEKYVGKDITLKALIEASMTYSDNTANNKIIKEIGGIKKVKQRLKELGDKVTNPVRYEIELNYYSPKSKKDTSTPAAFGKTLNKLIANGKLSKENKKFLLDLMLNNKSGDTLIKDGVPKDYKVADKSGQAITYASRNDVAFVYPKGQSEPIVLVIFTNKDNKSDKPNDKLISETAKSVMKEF
# Method: as §1
# The substitution of propoxy radical for iso-radical in this position is not accompanied by areduction of penicillin stability against penicillinase which is not observed in the orto- and para-positions. During the subsequent hours of inactivation the rate of hydrolysis of penicillins slightly increases. However, even when observed in dynamics, their stability against penicillianase still persists during 4-hour-inactivation.
smiles,measurement,setting,value
CC1(C)SC2C(NC(=O)C3(c4ccccc4)CC3)C(=O)N2C1C(=O)O (stereo not drawn) [Compound I (Table 2)],MTD,[1],1500 mg/kg
same,half-life,"[2]; Table 2, cyclopropyl series",9.9 min
COc1ccc(C2(C(=O)N[C@@H]3C(=O)N4[C@@H]3SC(C)(C)[C@@H]4C(=O)O)CC2)cc1 [Compound XII (Table 2)],MTD,[1],2000 mg/kg
same,half-life,"[2]; Table 2, cyclopropyl series",7.3 min
"CCOc1ccc(C2(C(=O)NC3C(=O)N4C3SC(C)(C)C4C(=O)O)CCCC2)cc1 (stereo not drawn) [Compound XIII (Table 1), 1-(n-Ethoxyphenyl)Cyclopentyl-1-Penicillin]",MIC,[3],31.2 µg/mL
same,MIC,[4],0.048 µg/mL
same,MIC,[5],0.24 µg/mL
same,MIC,[6],> 500 µg/mL
same,MIC,[7],62.5 µg/mL
same,MIC,[8],7.8 µg/mL
same,MIC,[9],62.5 µg/mL
same,MIC,[10],0.09 µg/mL
same,MIC,[11],0.19 µg/mL
same,MIC,[12],> 500 µg/mL
same,MIC,[13],0.19 µg/mL
same,MTD,[1],1500 mg/kg
same,half-life,"[2]; Table 1, cyclopentyl series",99.2 min
same,Quantity of inactivated units of compounds under the action of 1 unit of staphylococc penicillinase,[14],24.9 units
CC(C)Oc1ccc(C2(C(=O)NC3C(=O)N4C3SC(C)(C)C4C(=O)O)CCCC2)cc1 (stereo not drawn) [Compound XV (Table 1)],MIC,[3],31.2 µg/mL
same,MIC,[4],0.09 µg/mL
same,MIC,[5],0.24 µg/mL
same,MIC,[6],> 500 µg/mL
same,MIC,[7],25 µg/mL
same,MIC,[8],7.8 µg/mL
same,MIC,[9],62.5 µg/mL
same,MIC,[10],0.19 µg/mL
same,MIC,[11],0.48 µg/mL
same,MIC,[12],> 500 µg/mL
same,MIC,[13],0.19 µg/mL
same,MTD,[1],1500 mg/kg
same,half-life,"[2]; Table 1, cyclopentyl series",160 min
same,Quantity of inactivated units of compounds under the action of 1 unit of staphylococc penicillinase,[14],9.4 units
CCCCOc1cccc(C2(C(=O)N[C@@H]3C(=O)N4[C@@H]3SC(C)(C)[C@@H]4C(=O)O)CCC2)c1 [Compound XI (Table 3)],MTD,[1],1000 mg/kg
same,half-life,"[2]; Table 3, cyclobutyl series",46.6 min
COc1cccc(C2(C(=O)N[C@@H]3C(=O)N4[C@@H]3SC(C)(C)[C@@H]4C(=O)O)CCC2)c1 [Compound VII (Table 3)],MTD,[1],1500 mg/kg
same,half-life,"[2]; Table 3, cyclobutyl series",56.9 min
CCCCOc1ccccc1C1(C(=O)NC2C(=O)N3C2SC(C)(C)C3C(=O)O)CC1 (stereo not drawn) [Compound VI (Table 2)],MTD,[1],500 mg/kg
same,half-life,"[2]; Table 2, cyclopropyl series",5.2 min
COc1cccc(C2(C(=O)NC3C(=O)N4C3SC(C)(C)C4C(=O)O)CC2)c1 (stereo not drawn) [Compound VII (Table 2)],MTD,[1],1500 mg/kg
same,half-life,"[2]; Table 2, cyclopropyl series",7.2 min
CCOc1ccccc1C1(C(=O)NC2C(=O)N3C2SC(C)(C)C3C(=O)O)CC1 (stereo not drawn) [Compound III (Table 2)],MTD,[1],500 mg/kg
same,half-life,"[2]; Table 2, cyclopropyl series",6 min
CC(C)Oc1cccc(C2(C(=O)N[C@@H]3C(=O)N4[C@@H]3SC(C)(C)[C@@H]4C(=O)O)CCC2)c1 [Compound X (Table 3)],MTD,[1],500 mg/kg
same,half-life,"[2]; Table 3, cyclobutyl series",17.2 min
CC(C)Oc1cccc(C2(C(=O)N[C@@H]3C(=O)N4[C@@H]3SC(C)(C)[C@@H]4C(=O)O)CC2)c1 [Compound X (Table 2)],MTD,[1],500 mg/kg
same,half-life,"[2]; Table 2, cyclopropyl series",10.5 min
CCCOc1ccc(C2(C(=O)N[C@@H]3C(=O)N4[C@@H]3SC(C)(C)[C@@H]4C(=O)O)CC2)cc1 [Compound XIV (Table 2)],MTD,[1],1000 mg/kg
same,half-life,"[2]; Table 2, cyclopropyl series",19.4 min
CCCOc1cccc(C2(C(=O)N[C@@H]3C(=O)N4[C@@H]3SC(C)(C)[C@@H]4C(=O)O)CC2)c1 [Compound IX (Table 2)],MTD,[1],1500 mg/kg
same,half-life,"[2]; Table 2, cyclopropyl series",14.5 min
CCCCOc1cccc(C2(C(=O)N[C@@H]3C(=O)N4[C@@H]3SC(C)(C)[C@@H]4C(=O)O)CC2)c1 [Compound XI (Table 2)],MTD,[1],250 mg/kg
same,half-life,"[2]; Table 2, cyclopropyl series",6.2 min
CCOc1cccc(C2(C(=O)N[C@@H]3C(=O)N4[C@@H]3SC(C)(C)[C@@H]4C(=O)O)CCC2)c1 [Compound VIII (Table 3)],MTD,[1],1500 mg/kg
same,half-life,"[2]; Table 3, cyclobutyl series",23.8 min
CCCOc1ccc(C2(C(=O)NC3C(=O)N4C3SC(C)(C)C4C(=O)O)CCCC2)cc1 (stereo not drawn) [Compound XIV (Table 1)],MIC,[3],31.2 µg/mL
same,MIC,[4],0.048 µg/mL
same,MIC,[5],0.24 µg/mL
same,MIC,[6],> 500 µg/mL
same,MIC,[7],125 µg/mL
same,MIC,[8],7.8 µg/mL
same,MIC,[9],62.5 µg/mL
same,MIC,[10],0.09 µg/mL
same,MIC,[11],0.9 µg/mL
same,MIC,[12],> 500 µg/mL
same,MIC,[13],0.39 µg/mL
same,MTD,[1],1500 mg/kg
same,half-life,"[2]; Table 1, cyclopentyl series",88.9 min
same,Quantity of inactivated units of compounds under the action of 1 unit of staphylococc penicillinase,[14],10.4 units
CCOc1cccc(C2(C(=O)NC3C(=O)N4C3SC(C)(C)C4C(=O)O)CC2)c1 (stereo not drawn) [Compound VIII (Table 2)],MTD,[1],1500 mg/kg
same,half-life,"[2]; Table 2, cyclopropyl series",7.3 min
CCCCOc1ccc(C2(C(=O)NC3C(=O)N4C3SC(C)(C)C4C(=O)O)CCCC2)cc1 (stereo not drawn) [Compound XVI (Table 1)],MIC,[3],62.5 µg/mL
same,MIC,[4],0.048 µg/mL
same,MIC,[5],0.24 µg/mL
same,MIC,[6],> 500 µg/mL
same,MIC,[7],125 µg/mL
same,MIC,[8],15.6 µg/mL
same,MIC,[9],125 µg/mL
same,MIC,[10],0.19 µg/mL
same,MIC,[11],0.48 µg/mL
same,MIC,[12],> 500 µg/mL
same,MIC,[13],0.39 µg/mL
same,MTD,[1],1500 mg/kg
same,half-life,"[2]; Table 1, cyclopentyl series",43.2 min
same,Quantity of inactivated units of compounds under the action of 1 unit of staphylococc penicillinase,[14],23.3 units
